Reference: the NIST ThermoML archive (doi:10.1016/j.jct.2019.05.013)
± gives the expanded uncertainty stated by the source.

What was measured:
[1] = refractive index (Na D-line) (dimensionless); conditions: 293.15 K; 101.33 kPa; Liquid; Standard Abbe refractometry
[2] = wn = mass fraction of the nth substance listed; conditions: 100 kPa, Liquid; for viscosity: Falling or rolling sphere viscometry; for mass density: Vibrating tube method

In the case of `CO` [methanol], the refractive index [1] is reported as 1.32858 ± 0.0004.
Work on `CO` [methanol] + O yielded a viscosity ([2]; 273.15 K, w1 = 0.1) of 2.575 ± 0.055 mPa·s, a viscosity ([2]; 273.15 K, w1 = 0.2) of 3.315 ± 0.07 mPa·s and a viscosity ([2]; 273.15 K, w1 = 0.3001) of 3.636 ± 0.077 mPa·s. For the same molecule, the viscosity ([2]; 273.15 K, w1 = 0.4) was 3.623 ± 0.077 mPa·s, the viscosity ([2]; 273.15 K, w1 = 0.4999) was 3.312 ± 0.07 mPa·s and the mass density ([2]; 273.15 K, w1 = 0.1) was 984.19 ± 1 kg/m3. For the same molecule, the mass density ([2]; 273.15 K, w1 = 0.2) was 972.46 ± 1 kg/m3, the mass density ([2]; 273.15 K, w1 = 0.3001) was 960.61 ± 1 kg/m3 and the mass density ([2]; 273.15 K, w1 = 0.4) was 945.89 ± 1 kg/m3. It also gave a mass density ([2]; 273.15 K, w1 = 0.4999) of 928.63 ± 1 kg/m3, a viscosity ([2]; 293.15 K, w1 = 0.1) of 1.316 ± 0.028 mPa·s and a viscosity ([2]; 293.15 K, w1 = 0.2) of 1.623 ± 0.035 mPa·s. The viscosity ([2]; 293.15 K, w1 = 0.3001) was 1.782 ± 0.038 mPa·s, the viscosity ([2]; 293.15 K, w1 = 0.4) was 1.824 ± 0.039 mPa·s and the viscosity ([2]; 293.15 K, w1 = 0.4999) was 1.747 ± 0.037 mPa·s. It also gave a mass density ([2]; 293.15 K, w1 = 0.1) of 981.29 ± 1 kg/m3, a mass density ([2]; 293.15 K, w1 = 0.2) of 966.62 ± 1 kg/m3 and a mass density ([2]; 293.15 K, w1 = 0.3001) of 951.49 ± 1 kg/m3. It also gave a mass density ([2]; 293.15 K, w1 = 0.4) of 934.6 ± 1 kg/m3 and a mass density ([2]; 293.15 K, w1 = 0.4999) of 915.53 ± 1 kg/m3.
With `O` [water] + CO the viscosity ([2]; 275.15 K, w2 = 0) was 1.661 ± 0.035 mPa·s, the mass density ([2]; 275.15 K, w2 = 0) was 999.94 ± 1 kg/m3 and the viscosity ([2]; 293.15 K, w2 = 0) was 0.998 ± 0.021 mPa·s.
